Series [1] has as its system rat duodenal, jejunal, and ileal segments. Briefly: Intestinal absorptive permeability in Ussing chambers. Format: in vitro ADME. The protocol:
[31]. Briefly, duodenum, jejunum, and ileum segments were dissected and washed as described earlier. The duodenal, jejunal, and ileal segments mounted on the inserts of the Ussing chambers ([…], Holliston, MA, USA) were acclimatized with HBSS for 30 min. […] Aliquots (400 μL) of HBSS in the basal side were withdrawn at 0, 30, 60, 90, and 120 min, and the withdrawn samples were compensated with an equal volume of fresh, preheated HBSS. Carbogen gas (5% CO2/ 95% O2) was bubbled into the Ussing chambers at a rate of 150 drops/min during the experiment. […] For the generation of Na^+ gradient, rat duodenal, jejunal, and ileal segments mounted on the inserts of the Ussing chamber were pretreated with Na^+ free media comprising 10 mM HEPES, 5 mM Tris, 140 mM choline chloride, 2 mM KCl, 1 mM CaCl2, and 1 mM MgCl2 (pH7.4) for 30 min. […] A 100 μL aliquot of samples was transferred to 96-well plates and the fluorescence of Lucifer yellow was read directly in a fluorescence plate reader using a 485 nm excitation and an emission filter of 535 nm.

Series [2] in a line: Ginsenoside concentrations in rat plasma after oral RGE. Format: in vivo. The protocol: Ginsenoside concentrations in RGE and plasma samples were analyzed using an Agilent 6470 triple quadrupole liquid chromatography–tandem mass spectrometry (LC–MS/MS) system (Agilent, Wilmington, DE, USA) equipped with an Agilent 1260 high performance liquid chromatography (HPLC) system, according to a previously published method. […] Aliquots (20 μL) of the supernatant were injected into the LC–MS/MS system for the analysis of ginsenosides. […] The solvent gradient program was as follows: (1) 0–0.5 min, 72% B; (2) 0.5–8.5 min, 84% B; (3) 8.5–19.0 min, 72%.
Quantification of a separated ginsenoside peak was performed at m/z 1131.6 → 365.1 for Rb1 (TR (retention time) 5.0 min), m/z 1101.6 → 335.1 for Rb2 (TR 6.4 min) and Rc (TR 5.2 min), m/z 969.9 → 789.5 for Rd (TR 8.2 min) and Re (TR 1.6 min), m/z 824 → 643.6 for Rg1 (TR = 1.7 min), m/z 807.5 → 365.1 for Rg3 (TR 12.3 min), m/z 661.5 → 203.1 for Rh1 (TR 3.2 min) and F1 (TR 3.9 min), m/z 587.4 → 407.4 for Rh2 (TR 11.5 min), m/z 807.5 → 627.5 for F2 (TR 5.3 min), m/z 645.5 → 203.1 for compound K (TR 9.5 min), m/z 425.4 → 109.1 for protopanaxadiol (TR 18.8 min), m/z 441.3 → 109.1 for protopanaxatriol (TR 2.9 min), and m/z 336.1 → 320 for berberine (internal standard, IS) (TR 3.7 min) in the positive ionization mode with collision energy (CE) of 15–65 eV.

Series [3] is described as follows: Pharmacokinetics of metformin after oral administration in rats. The conditions noted are these: metformin 50 mg/kg PO, rat; for AUC(0-t): AUC24h.
Experimental: (§1) Aliquots of plasma (20 µL) and urine (50 µL) samples were vigorously mixed with 200 μL methanol containing 20 ng/mL propranolol (internal standard, IS) for 10 min.
(§2) Samples were eluted through a Synergy Polar RP column (2.0 mm × 150 mm, 4 µm particle size, Phenomenex, Torrence, CA, USA) using a mobile phase that consisted of methanol and water (70:30, v/v) with 0.1% formic acid at a flow rate of 0.2 mL/min. […] Pharmacokinetic parameters were evaluated from plasma concentration versus time curves by using non-compartment analysis of WinNonlin (version 5.1; Pharsights, Cary, NC, USA).
Series [4] in a line: Pharmacokinetics of metformin after intravenous injection in rats. The conditions noted are these: rat; for Ae24h (fraction of dose excreted in urine for 24 h as parent form) / AUC(0-t) / AUC(0-inf) / MRT: metformin […] IV; for AUC(0-t) / AUC(0-inf) / C0 / MRT: plasma, iv; for AUC(0-t): AUC24h; for C0: C0, metformin […] IV.
Experimental: An aliquot (50 µL) of urine samples was stored at −80 °C for the analysis.
as §1, §2
On the set-up of series [5]: method as in PMID 26869413. The note with it: cited from earlier work.
The mark [6] stands for this setting: plasma, po, 50 mg/kg, 1WRA of RGE 1.5 g/kg/day.
[7] abbreviates: plasma, po, 50 mg/kg, SA of RGE 1.5 g/kg.

Where two headings read alike, the source gives them in different places.

As usually defined, the Tmax is the time from dosing to the highest level. By AUC(0-t) is commonly meant the area under the concentration-time curve up to a stated or last time point. The low end stands for less exposure, the high end for more exposure. As usually defined, the AUC(0-inf) is the area under the concentration-time curve extrapolated to infinity. As a reminder, the Cmax is the maximum level reached in the sampled fluid or tissue. The term MRT denotes the average time that molecules of a dose stay in the body.

As for `CO[C@@H]([C@H](O)[C@H](O)CO)[C@@H](O)C=O` [3-O-methyl-D-glucose], the “Intestinal absorptive permeability (Papp), effect of RGE” value in series [1] (50 µM, duodenum, jejunum, ileum, SA and 1WRA groups vs control) was “not affected”.
Regarding `CC(C)=CCC[C@](C)(O[C@@H]1O[C@H](CO[C@@H]2O[C@H](CO)[C@@H](O)[C@H](O)[C@H]2O)[C@@H](O)[C@H](O)[C@H]1O)[C@H]1CC[C@]2(C)[C@@H]1[C@H](O)C[C@@H]1[C@@]3(C)CC[C@H](O[C@@H]4O[C@H](CO)[C@@H](O)[C@H](O)[C@H]4O[C@@H]4O[C@H](CO)[C@@H](O)[C@H](O)[C@H]4O)C(C)(C)[C@@H]3CC[C@]12C` [Rb1], the concentration at 2 h in series [2] (rat, plasma, 2 h after single oral administration of RGE (1.5 g/kg), read-out: Concentration in rat plasma, SA) stood at 14.3 ± 2.7 ng/mL. For the same molecule, the concentration at 24 h in series [2] (rat, plasma, 24 h after last dose of 1-week repeated oral RGE (1.5 g/kg/day), read-out: Concentration in rat plasma, 1WRA) amounted to 35.7 ± 1.9 ng/mL.
As for `CC(C)=CCC[C@](C)(O[C@@H]1O[C@H](CO[C@@H]2OC[C@H](O)[C@H](O)[C@H]2O)[C@@H](O)[C@H](O)[C@H]1O)[C@H]1CC[C@]2(C)[C@@H]1[C@H](O)C[C@@H]1[C@@]3(C)CC[C@H](O[C@@H]4O[C@H](CO)[C@@H](O)[C@H](O)[C@H]4O[C@@H]4O[C@H](CO)[C@@H](O)[C@H](O)[C@H]4O)C(C)(C)[C@@H]3CC[C@]12C` [Rb2], in series [2] (2 h after single oral administration of RGE (1.5 g/kg)), the “Concentration in rat plasma, SA” value stood at 6.3 ± 2.1 ng/mL. Further, the “Concentration in rat plasma, 1WRA” value in series [2] (24 h after last dose of 1-week repeated oral RGE (1.5 g/kg/day)) came out at 29.4 ± 1.5 ng/mL.
With `CN(C)C(=N)N=C(N)N` [metformin, Metformin], the “Ae24h (fraction of dose excreted in urine for 24 h as parent form)” value in series [3] (1WRA of RGE 1.5 g/kg/day) is on record as 66.29 ± 10.57 %; in series [3] (Control), 54.56 ± 3.26%; in series [3] (SA of RGE 1.5 g/kg), 53.04 ± 3.69%; in series [4] (1WRA of RGE 1.5 g/kg/day) it was 79.56 ± 5.02%; in series [4] (Control), 80.07 ± 4.93%; in series [4] (SA of RGE 1.5 g/kg), 83.52 ± 5.72%. In addition, the time to peak (Tmax) in series [3] (1WRA of RGE 1.5 g/kg/day) amounted to 2.00 ± 0.01 h; in series [3] (plasma, po, 50 mg/kg, Tmax, Control), 2.4 ± 0.89 h. Further, the AUC(0-t) in series [3] (setting [6]) worked out at 57600 ± 4990 ng·h/mL; in series [3] (plasma, po, 50 mg/kg, Control), 44300 ± 8310 ng·h/mL; in series [3] (setting [7]), 45200 ± 11100 ng·h/mL; in series [4] (1WRA of RGE 1.5 g/kg/day) it was 980 ± 362 ng·h/mL; in series [4] (SA of RGE 1.5 g/kg), 1050 ± 237 ng·h/mL. In addition, the AUC(0-inf) was determined as 59000 ± 5170 ng·h/mL in series [3] (setting [6]); 44800 ± 8090 ng·h/mL in series [3] (plasma, po, 50 mg/kg, Control); 45700 ± 11200 ng·h/mL in series [3] (setting [7]); 986 ± 364 ng·h/mL in series [4] (1WRA of RGE 1.5 g/kg/day); 1050 ± 239 ng·h/mL in series [4] (SA of RGE 1.5 g/kg). Besides, the peak concentration (Cmax) was found to be 9900 ± 1490 ng/mL in series [3] (setting [6]); 6310 ± 1680 ng/mL in series [3] (plasma, po, 50 mg/kg, Control); 6470 ± 2000 ng/mL in series [3] (setting [7]). The MRT turned out to be 4.64 ± 0.68 h in series [3] (setting [6]); 4.85 ± 0.58 h in series [3] (plasma, po, 50 mg/kg, Control); 4.69 ± 0.33 h in series [3] (setting [7]); 0.85 ± 0.35 h in series [4] (1WRA of RGE 1.5 g/kg/day); 0.81 ± 0.17 h in series [4] (SA of RGE 1.5 g/kg). Moreover, the values for the C0 in series [4] (1WRA of RGE 1.5 g/kg/day) and in series [4] (SA of RGE 1.5 g/kg) were 1760 ± 438 ng/mL and 1670 ± 623 ng/mL, respectively. In series [5], the “Fraction of dose absorbed in the duodenum” value is recorded as “Approximately 20%”. In series [5], the “Fraction of dose absorbed in the jejunum and ileum” value is on record as 60%.
In the case of Lucifer yellow, the “Intestinal absorptive permeability (Papp), effect of RGE” value in series [1] is given as “not altered”.

Source of the values: paper PMC6523382 (Pharmaceutics, 2019).
